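Cells were grown in 96-well plates and exposed to each compound for 48 hours at five concentrations; endpoints were interpolated linearly between bracketing concentrations, or set to the highest concentration if not reached. GI50 is the concentration that inhibits growth by half.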 Active and inactive are the calls of the source. Cut-off read from the data, not from the text of the source: active = GI50 up to about 1.1 µM and inactive = higher.
Key:
Assay in all cases: growth of human tumour cells (NCI), 48 h
A549 = tested on: A549
CCRF-CEM = tested on: CCRF-CEM
HCC 2998 = tested on: HCC 2998
HCT-116 = tested on: HCT-116
HL-60 = tested on: HL-60
HOP-92 = tested on: HOP-92
HT-29 = tested on: HT-29
KM12 = tested on: KM12
LOX IMVI = tested on: LOX IMVI
NCI-H460 = tested on: NCI-H460
NCI-H522 = tested on: NCI-H522
PC-3 = tested on: PC-3
RPMI-8226 = tested on: RPMI-8226
SF-268 = tested on: SF-268
SF-539 = tested on: SF-539
SK-MEL-2 = tested on: SK-MEL-2
SK-OV-3 = tested on: SK-OV-3
SNB-75 = tested on: SNB-75
SR = tested on: SR
SW-620 = tested on: SW-620

Compound	GI50 (A549)	GI50 (CCRF-CEM)	GI50 (HCC 2998)	GI50 (HCT-116)	GI50 (HL-60)	GI50 (HOP-92)	GI50 (HT-29)	GI50 (KM12)	GI50 (LOX IMVI)	GI50 (NCI-H460)	GI50 (NCI-H522)	GI50 (PC-3)	GI50 (RPMI-8226)	GI50 (SF-268)	GI50 (SF-539)	GI50 (SK-MEL-2)	GI50 (SK-OV-3)	GI50 (SNB-75)	GI50 (SR)	GI50 (SW-620)
OC(C/C(=N\N=C(/CC(O)(C(F)(F)F)C(F)(F)F)c1ccccc1)c1ccccc1)(C(F)(F)F)C(F)(F)F	> 10 µM (inactive)	> 10 µM (inactive)	> 10 µM (inactive)	> 10 µM (inactive)	> 10 µM (inactive)	> 10 µM (inactive)	> 10 µM (inactive)	> 10 µM (inactive)	> 10 µM (inactive)	> 10 µM (inactive)	> 10 µM (inactive)	> 10 µM (inactive)	> 10 µM (inactive)	> 10 µM (inactive)	> 10 µM (inactive)	> 10 µM (inactive)	> 10 µM (inactive)	> 10 µM (inactive)	> 10 µM (inactive)	> 10 µM (inactive)
O=C(NCCn1ccnn1)Nc1ccccc1	> 100 µM (inactive)	> 100 µM (inactive)	> 100 µM (inactive)		> 100 µM (inactive)	> 100 µM (inactive)	> 100 µM (inactive)	> 100 µM (inactive)	> 100 µM (inactive)	> 100 µM (inactive)	> 100 µM (inactive)	> 100 µM (inactive)	> 100 µM (inactive)	> 100 µM (inactive)		> 100 µM (inactive)		> 100 µM (inactive)	> 100 µM (inactive)	> 100 µM (inactive)
COC(=O)C1(SC)C2CCC3C2CCC31 (stereo not given)	> 100 µM (inactive)	> 100 µM (inactive)	> 100 µM (inactive)	> 100 µM (inactive)	> 100 µM (inactive)	> 100 µM (inactive)			> 100 µM (inactive)	> 100 µM (inactive)	> 100 µM (inactive)	> 100 µM (inactive)	> 100 µM (inactive)	> 100 µM (inactive)	> 100 µM (inactive)	> 100 µM (inactive)	> 100 µM (inactive)	> 100 µM (inactive)	> 100 µM (inactive)	> 100 µM (inactive)
CC1(C)OC[C@@H](C[C@H](O)COCc2ccccc2)O1	> 100 µM (inactive)	> 100 µM (inactive)	> 100 µM (inactive)	> 100 µM (inactive)	> 100 µM (inactive)	> 100 µM (inactive)	> 100 µM (inactive)	> 100 µM (inactive)	> 100 µM (inactive)	> 100 µM (inactive)	> 100 µM (inactive)	> 100 µM (inactive)	> 100 µM (inactive)	> 100 µM (inactive)	> 100 µM (inactive)	> 100 µM (inactive)	> 100 µM (inactive)	> 100 µM (inactive)	> 100 µM (inactive)	> 100 µM (inactive)
CCOC(=O)C(NC(=O)c1ccccc1)(N1CCOCC1)C(F)(F)F (stereo not given)	> 100 µM (inactive)	> 100 µM (inactive)	> 100 µM (inactive)	> 100 µM (inactive)	> 100 µM (inactive)	> 100 µM (inactive)	> 100 µM (inactive)	> 100 µM (inactive)	> 100 µM (inactive)		> 100 µM (inactive)	> 100 µM (inactive)	> 100 µM (inactive)	> 100 µM (inactive)	> 100 µM (inactive)	> 100 µM (inactive)	> 100 µM (inactive)	> 100 µM (inactive)	> 100 µM (inactive)	> 100 µM (inactive)
O=C1C=C(Nc2ccc(Br)cc2)c2ccccc2/C1=N/O	1.98 µM (inactive)	23.6 µM (inactive)	3.84 µM (inactive)	11.4 µM (inactive)	13.2 µM (inactive)	17.6 µM (inactive)	12.1 µM (inactive)	2.5 µM (inactive)	2.18 µM (inactive)	2.3 µM (inactive)	28.1 µM (inactive)	8.47 µM (inactive)	11.6 µM (inactive)	5.6 µM (inactive)	9.48 µM (inactive)	1.5 µM (inactive)	12.9 µM (inactive)	2.75 µM (inactive)	9.38 µM (inactive)	4.32 µM (inactive)
C=C1C(=O)OC2CC1C(OC(=O)/C=C/c1ccccc1)C/C(C)=C/CC/C(C)=C/CCC2(C)O (stereo not given)	1.71 µM (inactive)	0.372 µM (active)	1.58 µM (inactive)	1.24 µM (inactive)	0.308 µM (active)	1.52 µM (inactive)	1.33 µM (inactive)	1.71 µM (inactive)	0.828 µM (active)	1.36 µM (inactive)	0.692 µM (active)	1.63 µM (inactive)	0.433 µM (active)	1.68 µM (inactive)	1.46 µM (inactive)	1.48 µM (inactive)	2.19 µM (inactive)	1.43 µM (inactive)	0.778 µM (active)	1.04 µM (active)
Cc1cc(O)c2c(c1)CC(O)C1=C2C(=O)c2c(O)ccc(OC3CC(O)C(OC4CC(OC5CCC(O)C(C)O5)C(O)C(C)O4)C(C)O3)c2C1=O (stereo not given)	2.33 µM (inactive)	0.203 µM (active)	1.85 µM (inactive)	1.75 µM (inactive)	0.386 µM (active)	1.86 µM (inactive)	2.27 µM (inactive)	1.74 µM (inactive)	1.33 µM (inactive)	2.16 µM (inactive)	0.964 µM (active)	1.71 µM (inactive)	0.53 µM (active)	1.74 µM (inactive)	1.85 µM (inactive)	1.58 µM (inactive)	2.33 µM (inactive)	2.74 µM (inactive)	0.324 µM (active)	0.518 µM (active)
O=C1CSC2(CC(/C=C/c3ccccc3[N+](=O)[O-])=NN2c2cccc(S(=O)(=O)O)c2)N1c1nc2ccccc2s1 (stereo not given)	18.7 µM (inactive)	17.9 µM (inactive)	30.3 µM (inactive)	21.3 µM (inactive)	21.7 µM (inactive)	25.5 µM (inactive)	23.8 µM (inactive)	15.5 µM (inactive)	16.4 µM (inactive)	17 µM (inactive)	11.6 µM (inactive)	15.3 µM (inactive)	16.8 µM (inactive)	16.8 µM (inactive)	23.5 µM (inactive)	15.2 µM (inactive)		15.3 µM (inactive)	20.2 µM (inactive)	22.6 µM (inactive)
Clc1cc(OC2C3CC4CC(C3)CC2C4)nc(Cl)n1 (stereo not given)	29.6 µM (inactive)	16.7 µM (inactive)	1.96 µM (inactive)	14.3 µM (inactive)	3.08 µM (inactive)	1.64 µM (inactive)	15.4 µM (inactive)	20.8 µM (inactive)	3.86 µM (inactive)	17.7 µM (inactive)	12.4 µM (inactive)	19.2 µM (inactive)	21 µM (inactive)	19.2 µM (inactive)	20.7 µM (inactive)	12 µM (inactive)	67.5 µM (inactive)	39 µM (inactive)	3.52 µM (inactive)	13.9 µM (inactive)
Cc1nc2ccc(S(=O)(=O)Nc3ccc(Cl)cc3)cc2c(=O)n1NC(=O)CNc1ccc(Cl)cc1	> 100 µM (inactive)	> 100 µM (inactive)	> 100 µM (inactive)	> 100 µM (inactive)	> 100 µM (inactive)	> 100 µM (inactive)	> 100 µM (inactive)	64 µM (inactive)	> 100 µM (inactive)	> 100 µM (inactive)	> 100 µM (inactive)	> 100 µM (inactive)	> 100 µM (inactive)	> 100 µM (inactive)	> 100 µM (inactive)	> 100 µM (inactive)	> 100 µM (inactive)	> 100 µM (inactive)	> 100 µM (inactive)	> 100 µM (inactive)
NCCCN(CCCCN(CCCN)CCCc1ccccc1)CCCc1ccccc1	3.23 µM (inactive)	2.49 µM (inactive)	1.62 µM (inactive)	1.82 µM (inactive)	1.15 µM (inactive)	6.97 µM (inactive)	1.85 µM (inactive)	2.55 µM (inactive)	2.36 µM (inactive)	1.42 µM (inactive)	2.09 µM (inactive)	3.22 µM (inactive)	2.43 µM (inactive)	3.07 µM (inactive)	1.86 µM (inactive)	1.69 µM (inactive)	4.16 µM (inactive)	1.93 µM (inactive)	2.31 µM (inactive)	2.86 µM (inactive)
CC(=O)C1=CN=C2C(=O)N(c3ccccc3)N(C)C12C (stereo not given)	> 100 µM (inactive)	> 100 µM (inactive)	16.9 µM (inactive)	> 100 µM (inactive)	> 100 µM (inactive)	> 100 µM (inactive)		3.08 µM (inactive)	> 100 µM (inactive)		> 100 µM (inactive)	> 100 µM (inactive)	> 100 µM (inactive)		> 100 µM (inactive)	> 100 µM (inactive)	> 100 µM (inactive)	24.7 µM (inactive)	> 100 µM (inactive)	> 100 µM (inactive)
CCN(CC)CCNC(=O)c1cn2c(ccc3sc4ccccc4c(=O)c32)n1	4.36 µM (inactive)	2.74 µM (inactive)	10.1 µM (inactive)	5.97 µM (inactive)	5.26 µM (inactive)	8.91 µM (inactive)	6.89 µM (inactive)	12.2 µM (inactive)	9.18 µM (inactive)	1.03 µM (active)	9.16 µM (inactive)	10.8 µM (inactive)	5.62 µM (inactive)	6.93 µM (inactive)	10.8 µM (inactive)	21 µM (inactive)	12.1 µM (inactive)	16.3 µM (inactive)	1.25 µM (inactive)	6.25 µM (inactive)

From ChEMBL document CHEMBL1201862, “PubChem BioAssay data set” (2004)
